# Measured values as given in patent US20110020239A1, “METHODS FOR IN VIVO IMAGING OF CELLS” (The Johns Hopkins University, priority 2007, published 2011).
# Legend:
# human islets [1] = assay: Microfluorometric viability assay (Newport Green / propidium iodide) of labeled islets; assay type: cell-based
# Method: Fresh human cadaveric islets were provided by the Joslin Diabetes Research Center (Boston, Mass.) under an approved protocol of the National Islet Cell Resource Program. Islets were cultured in RPMI 1640 medium (Gibco), supplemented with 10% fetal calf serum and 1% penicillin/streptomycin/L-glutamine (all reagents from Sigma Co) in a humidified CO2 incubator at 37° C. and a 5% CO2 atmosphere. Islets were cultured in tissue culture plates and culture media was replaced every 3 days. For all Feridex labeled islets, islets were initially labeled with procedure described below and then were cultured in contrast free medium. In the case of PFC labeled islets, the respective PFC was supplemented to each change of culture medium throughout the entire culture period.
# Viability of labeled human islets was determined using a microfluorometric assay. Cells were incubated for 30 minutes with […] Newport Green (NG, Sigma, St. Louis, Mo.), which stains viable cell cytoplasm green. Following NG staining, islets were incubated for 10 minutes with 5 mM propidium iodide (PI, Sigma, St. Louis, Mo.), which emits red fluorescence when bound to nucleic acids. NG was excited by using a 500 nm laser line and emitted fluorescence was detected using a 535 nm long-pass filter. PI was excited by using a 514 nm laser line and emitted fluorescence was detected using a 550 nm long-pass filter. NG stained cells (green) were counted as viable, while PI stained cells (red) were counted as dead. In cases of dual staining, the cells were considered dead.
# human islets [2] = assay: Insulin secretion assay (static incubation, C-peptide ELISA); assay type: cell-based; set-up: glucose responsiveness stimulation index: dose or concentration left out as unconfirmed; conditions: for difference in glucose responsiveness stimulation index between PFOB and PFPE: PFOB vs PFPE, p>0.05; for glucose responsiveness stimulation index: increase of insulin secretion
# Method: A static incubation assay was used to assess the insulin secretion response of labeled human islets. One hundred islets were placed in a culture insert (membrane pore diameter 12 μm; Millicell PCF) in six-well plates. The insulin secretion was measured after 1.5 hrs in a solution of a specific glucose level. […] Aliquots of the medium were stored at −80° C. The C-peptide content of the samples was determined with an enzyme-linked, immunosorbent assay (ultrasensitive human c-peptide ELISA, Alpco Diagnostics); results (in ng/ml) were expressed as the means of three independent experiments. The C-peptide secretion was also assessed at 7 days and at 14 days following islet encapsulation, using 8 mM glucose and 90 min incubation.
# [3] = 19F NMR of PFCs (aqueous solubility); assay type: physicochemical; conditions: 19F NMR experiments
# From the text: In the ^19F NMR spectrum of PFOB, eight resonance peaks are observable, one for each carbon position.
# dendritic cells = conditions: Ahrens, Flores et al. 2005; cited from earlier work
Compound,islet viability compared to both Feridex labeled and unlabeled islets (human islets [1]),"percentage survival of labeled islets compared to unlabeled control islets (human islets [1]; all days / all time points (days 1, 7, 14))",difference in glucose responsiveness stimulation index between PFOB and PFPE (human islets [2]),glucose responsiveness stimulation index (human islets [2]),glucose responsiveness of labeled vs unlabeled islets (human islets [2]; insulin secretion assays),aqueous solubility [3],"percentage survival of labeled islets compared to unlabeled control islets (human islets [1]; days 7 and 14, p<0.05)","effect on dendritic cell proliferation, function, or maturation (dendritic cells)"
"FC(F)(F)C(F)(F)C(F)(F)C(F)(F)C(F)(F)C(F)(F)C(F)(F)C(F)(F)Br [PFOB, perfluorooctylbromide]",significant increase in viability,statistically significant increase,no significant statistical difference,2.19,no significant difference,below the limit of detection,–,–
"FC1(F)OC(F)(F)C(F)(F)OC(F)(F)C(F)(F)OC(F)(F)C(F)(F)OC(F)(F)C(F)(F)OC1(F)F [PFPE, perfluoro-15-crown-5 ether]",–,–,no significant statistical difference,2.07,–,–,significant statistical differences,no effect
